These results are taken from PMC10629583, “Specific inhibition of an anticancer target, polo-like kinase 1, by allosterically dismantling its mechanism of substrate recognition” (Proceedings of the National Academy of Sciences of the …, 2023).

Values joined by “and” are separate entries in the source; they are usually repeats but may differ in a detail not shown here. Equal values may be shown once.

For one assay, the target named is T1, PBD2 S652F mutant (Homo sapiens, UniProt Q9NYY3, S652F).
T1 construct: Purification of PBD2-His (355–685) (pKM3358) and its S652F mutant (pKM7980); His (C); made in house; host or cells: bacteria (E. coli)
The assay is described as follows: FP-based inhibition assay, PBD2 S652F. The assay is classed as binding. How it is done:
(§1) FP assays were carried out essentially as described previously ([35], [36]). FITC-conjugated ligands (15 nM) were mixed with PBDs at their EC85 concentrations. All the samples were analyzed approximately 30 min after reaction in a 384-well format using the SpectraMax Paradigm multimode microplate detection platform (Molecular Devices). Data were analyzed after carrying out at least three independent experiments using GraphPad Prism software version 8.
(§2) Fig. S3. Sequence alignment showing unique PBD2 S652 and PBD3 A612 residues and FP-based Allopole-A inhibition assays carried out with PBD2 S652F and PBD A612F mutants. (A) Human PBD1 (Uniprot ID: P53350), PBD2 (Uniprot ID: Q9NYY3), and PBD3 (15niport ID:Q9H4B4) sequences were aligned using Clustal Omega. The polo-box cap and L1 loop regions were adjusted based on the structural superposition of PBD1 (PDB ID: 3HIK), PBD2 (PDB_ID: 4RS6), and the AlphaFold model of PBD3 (https://alphafold.ebi.ac.uk). […]
(§3) with PBD2 and MBP-PBD3 are working properly under our conditions. […] The Kd values for the indicated proteins were determined after extrapolating them from the binding curves as the […]
(§4) concentration at which 50% of FITC-conjugated ligands (FITC-GPMQTSpTPKNG for PBD2 and FITC-GPLATSpTPKNG for PBD3) (5) are protein-bound. The EC85 values indicate the effective concentration of 85% of the maximal concentration calculated for each protein. […]

The target in another assay is T2, PBD3 A612F mutant (Homo sapiens, UniProt Q9H4B4, A612F).
T2 construct: MBP-PBD3-His (335–646) (pKM3359) and its A612F (pKM7981); His (C); made in house; host or cells: bacteria (E. coli)
The assay is described as follows: FP-based inhibition assay, PBD3 A612F. The assay is classed as binding. As to conditions: MBP-PBD3 A612F. As to the method:
as §1, §2, §3, §4

A further assay addresses T3, PBD1 F559E mutant (Homo sapiens, UniProt P53350, F559E).
T3 construct: constructs expressing PBD1 (residues 345–603) WT (pKM7650), F559D (pKM7878), F559E (pKM7879); His; TEV site (N); made in house; host or cells: bacteria (E. coli)
The assay is described as follows: FP-based binding/inhibition assay, PBD1 F559E. The following applies: PBD1 F559E at EC85. How it is done:
as §1
(§5) Fig. S4. Generation of F559 mutants for in vitro and cell-based assays in Fig. 4. (A) SDS-PAGE showing the proteins used for the FP assays in Fig. 4 A and B. CBB, a Coomassie Brilliant Blue– stained gel. (B) Summary of Kd and EC85 values for PBD1 WT and mutants. The Kd values for PBD1 WT and mutants were determined after extrapolating them from the binding curves as the concentration at which 50% of the FITC-Ahx-DPPLHSpTAI-NH2 are PBD1-bound. The EC85 values indicate the effective concentration of 85% of the maximal concentration calculated for each protein. The FP values were obtained 30 minutes after incubation. For the F559K and F559R mutants, we were not able to determine the EC85 values and therefore used 2 µM of these proteins for the assays in Fig. 4B. N.D., not determined. […]

A further assay has as its target T4, PBD1 F559K mutant (Homo sapiens, UniProt P53350, F559K).
T4 construct: constructs expressing PBD1 (residues 345–603) WT (pKM7650); His; TEV site (N); made in house; host or cells: bacteria (E. coli)
The experiment in a line: FP-based binding/inhibition assay, PBD1 F559K. The following applies: PBD1 F559K, 2 µM protein. How it is done: as §1, §5

Another assay has as its target T5, Plk1 PBD (PBD1) (Homo sapiens, UniProt P53350).
T5 construct: constructs expressing PBD1 (residues 345–603) WT (pKM7650); His; TEV site (N); made in house; host or cells: bacteria (E. coli)
The experiment in a line: FP-based inhibition assay, PBD1. The assay is classed as binding. How it is done: FP assays were carried out essentially as described previously ([35], [36]). […] All the samples were analyzed approximately 30 min after reaction in a 384-well format using the SpectraMax Paradigm multimode microplate detection platform (Molecular Devices). Data were analyzed after carrying out at least three independent experiments using GraphPad Prism software version 8.

For a further assay, the target named is T6, full-length Plk1 (Homo sapiens, UniProt P53350).
T6 construct: expressed in transfected cells; host or cells: HEK293A cells infected with adenovirus; total lysate
The assay is described as follows: ELISA-based PBD1-binding inhibition assay. The following applies: total lysates from HEK293A cells expressing full-length Plk1; biotinylated PBIP1 p-T78 peptide; read-out: Anti-Plk1 (full length) ELISA (IC50) Mean ± SEM. (In general: ELISA stands for enzyme-linked immunosorbent assay.)

Assay [1] concerns U2OS cells expressing Pendo-mGFP-Plk1 WT. The assay is described as follows: MTS proliferation assay, U2OS Plk1 RNAi cells expressing WT Plk1. The assay is classed as cell-based. The following applies: WT Plk1, 3 to 6 μM, 36 h. As to the method: Cell viability was determined using the […] CellTiter 96® AQueous One Solution Cell Proliferation Assay (MTS) kit (Promega) containing a tetrazolium compound [3-(4,5-dimethylthiazol-2-yl)-5-(3-carboxymethoxy-phenyl)-2-(4-sulfophenyl)-2H-tetrazolium, inner salt (MTS)] and an electron-coupling phenazine ethosulfate. For the MTS assays in Fig. 1B, L363 cells cultured in a 96-well plate were treated with the indicated compounds for 48 h (the final volume of 100 μL). After the compound treatment, cells were additionally treated with 20 μL of the MTS solution and incubated at 37 °C for 2 to 4 h in a humidified 5% CO2 atmosphere. The absorbance of the resulting sample was measured at 490 nm using a PerkinElmer EnSpire Multimode 96-well plate reader. For the MTS assays in Fig. 4E, U2OS cells stably expressing either Pendo-mGFP-Plk1 WT or F559D were seeded at approximately 5,000 cells/well in a 96-well plate, depleted of endogenous Plk1 by RNAi, and then treated with either control DMSO or Allopole as indicated in the schematic diagram in SI Appendix, Fig. S4E.
Background: Tetrazolium assays rely on reduction of a dye to a coloured formazan, in cell work by metabolically active cells.

T5 sequence (P53350 345-603): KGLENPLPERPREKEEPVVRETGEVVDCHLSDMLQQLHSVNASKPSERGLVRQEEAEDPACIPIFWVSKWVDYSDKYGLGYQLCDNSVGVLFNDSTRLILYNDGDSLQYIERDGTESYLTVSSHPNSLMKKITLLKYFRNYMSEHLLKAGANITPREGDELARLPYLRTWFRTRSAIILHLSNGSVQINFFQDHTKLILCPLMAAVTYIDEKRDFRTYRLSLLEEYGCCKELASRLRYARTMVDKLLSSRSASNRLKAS
T1 sequence (Q9NYY3 355-685 S652F): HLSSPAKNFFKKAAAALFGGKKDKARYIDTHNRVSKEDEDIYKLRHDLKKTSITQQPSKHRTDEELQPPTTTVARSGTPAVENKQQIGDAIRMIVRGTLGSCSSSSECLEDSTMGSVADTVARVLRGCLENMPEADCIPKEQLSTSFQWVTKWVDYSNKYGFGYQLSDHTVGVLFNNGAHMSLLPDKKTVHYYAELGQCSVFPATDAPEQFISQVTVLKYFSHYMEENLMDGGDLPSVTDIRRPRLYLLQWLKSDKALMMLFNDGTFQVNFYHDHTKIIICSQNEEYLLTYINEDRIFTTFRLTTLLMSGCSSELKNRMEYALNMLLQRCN
T3 sequence (P53350 345-603 F559E): as the sequence (P53350 345-603) above, with F215E counted along it
T2 sequence (Q9H4B4 335-646 A612F): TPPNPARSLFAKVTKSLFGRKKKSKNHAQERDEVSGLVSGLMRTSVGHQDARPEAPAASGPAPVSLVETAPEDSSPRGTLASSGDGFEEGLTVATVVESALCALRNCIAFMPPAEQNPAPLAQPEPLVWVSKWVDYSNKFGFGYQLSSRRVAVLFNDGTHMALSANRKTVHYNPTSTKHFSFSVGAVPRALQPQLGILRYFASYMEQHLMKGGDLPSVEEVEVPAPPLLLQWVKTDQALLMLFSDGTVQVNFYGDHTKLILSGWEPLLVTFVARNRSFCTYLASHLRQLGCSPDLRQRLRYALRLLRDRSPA
T6 sequence (P53350 whole entry): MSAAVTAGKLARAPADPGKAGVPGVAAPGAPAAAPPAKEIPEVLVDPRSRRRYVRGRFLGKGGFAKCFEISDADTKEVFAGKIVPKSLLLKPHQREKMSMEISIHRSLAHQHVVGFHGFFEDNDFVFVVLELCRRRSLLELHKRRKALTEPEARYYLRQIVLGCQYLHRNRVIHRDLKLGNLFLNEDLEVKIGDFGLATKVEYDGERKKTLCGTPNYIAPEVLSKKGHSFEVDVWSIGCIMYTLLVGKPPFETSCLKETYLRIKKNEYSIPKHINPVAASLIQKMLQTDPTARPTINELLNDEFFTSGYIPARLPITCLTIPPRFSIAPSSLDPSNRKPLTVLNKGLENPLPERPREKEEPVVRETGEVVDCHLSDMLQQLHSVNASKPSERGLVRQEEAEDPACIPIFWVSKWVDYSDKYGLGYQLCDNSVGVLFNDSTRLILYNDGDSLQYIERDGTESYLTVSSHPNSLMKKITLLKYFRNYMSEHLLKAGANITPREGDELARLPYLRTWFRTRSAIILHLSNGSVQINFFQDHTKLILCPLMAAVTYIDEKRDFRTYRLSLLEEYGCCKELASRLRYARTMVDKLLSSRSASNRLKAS
T4 sequence (P53350 345-603 F559K): as the sequence (P53350 345-603) above, with F215K counted along it

In the case of `O=c1c2sc(Cl)cc2n2c(=S)[nH]nc2n1CC1CC1` [Allopole-A], the “Inhibition in FP assay (in words)” value at PBD2 S652F mutant and on PBD3 A612F mutant was “not inhibitable” throughout. The “Inhibition of FITC-phosphopeptide binding (in words)” value on PBD1 F559E mutant is reported as “failed to inhibit”; on PBD1 F559K mutant, “failed to inhibit”; on Plk1 PBD (PBD1) (PBD1 WT at EC85), “effectively inhibited PBD1 WT”. The IC50 (in general, the midpoint of a concentration-inhibition curve) was 2.5 nM and 2.53 nM at Plk1 PBD (PBD1) (FP, bacterially expressed purified PBD, FITC-ligand 15 nM, PBD at EC85, read-out: PBD1 IC50 ± SD); 1400 nM at full-length Plk1.

On to `Cn1cnc([N+](=O)[O-])c1Sc1nnc2n(CC3CC3)c(=O)c3sc(Cl)cc3n12` [Allopole], for which the “Proliferation rate (in words)” value in assay [1] is “significant reduction in their proliferation rate”.
